Assay results published in patent US10167257B2, “Indole derivatives for use in medicine” (IOmet Pharma Ltd., priority 2014, dated 2019).

Experiments:
[1] = target: T1, TDO (A172 cells) (Homo sapiens, UniProt P48775); assay: TDO cell-based assay (A172), kynurenine production; settings: A172 human glioblastoma cells, 500 μM L-Trp, 48 h, kynurenine by absorbance at 490 nm
T1 construct: This assay utilised cancer cells which expressed either TDO or IDO; host or cells: A172 human glioblastoma cells
How it was run: (§1)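 SKOV-3 cells (IDO, induced with 500 ng/ml IFNγ) or A172 glioblastoma cells (TDO) were incubated with compound and 500 μM L-Trp for 48 h at 37 °C in phenol-red-free RPMI with dialysed serum. Supernatant kynurenine was measured with 1% Ehrlich's reagent as absorbance at 490 nm.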

[2] = target: human IDO protein (Homo sapiens, UniProt P14902); assay: IDO biochemical coupled assay (hIDO); settings: 0.17 μM human IDO protein, biochemical coupled assay with formamidase
Excerpt: (§2) Two different types of assay were employed: 1. A TDO and IDO biochemical coupled assay which utilised recombinantly produced and purified TDO and IDO enzymes in combination with the enzyme formamidase. This coupled enzyme system allowed conversion of N-formylkynurenine produced by TDO or IDO activity to kynurenine which was then quantified by fluorescence following addition of Erhlich's Reagent. 2. A cell-based assay for detecting the effect of test compounds on kynurenine production in two different cancer cell types. This assay utilised cancer cells which expressed either TDO or IDO and as such was used as a means of testing compound activity at these two enzymes in a cell-based context. The protocols for these are set out below.
0.17 μM of human IDO protein was pre-incubated for 10 min or 120 min at RT with test compounds in the presence of 50 mM KPO4, pH 7.0, 0.5 mM EDTA, 0.5 mM EGTA, 0.05% Triton X-100, 20 mM ascorbate, 500 U/ml catalase, 10 μM methylene blue at RT in a 384 well plate. 0.05 μg/μl kynurenine formamidase and 45 μM or 121 μM L-tryptophan (L-Trp) were added and the assays were incubated at RT for 17 min. Assays were stopped and the level of kynurenine was determined by incubation with Ehrlich's reagent to a final concentration of 1.33% at RT for 5 min. Fluorescence intensity was read at 475 nm/530 nm.

[3] = target: T2, IDO (SKOV-3 cells) (Homo sapiens, UniProt P14902); assay: IDO cell-based assay (SKOV-3, IFNγ-induced), kynurenine production; settings: SKOV-3 ovary adenocarcinoma cells, IFNγ 500 ng/ml, 500 μM L-Trp, 48 h, kynurenine by absorbance at 490 nm
T2 construct: This assay utilised cancer cells which expressed either TDO or IDO; host or cells: SKOV-3 ovary adenocarcinoma cells, IFNγ-induced
How it was run: as §1

[4] = target: human TDO protein (Homo sapiens, UniProt P48775); assay: TDO biochemical coupled assay (hTDO); settings: 2 μM human TDO protein, biochemical coupled assay with formamidase; read-out: pIC50 in the hTDO test (converted)
Excerpt: as §2
2 μM of human TDO protein was pre-incubated for 10 minutes at RT with test compounds in the presence of 50 mM KH2PO4, pH 7.0, 0.5 mM EDTA, 0.5 mM EGTA, 0.05% Triton X-100, 20 mM ascorbate, 500 U/ml catalase, 10 μM methylene blue at RT in a 384 well plate. 0.05 μg/μl kynurenine formamidase and 330 μM or 178 μM L-tryptophan were added and the assays were incubated at room temperature (RT) for 17 min. Assays were stopped and the level of kynurenine was determined by incubation with Ehrlich's reagent to a final concentration of 1.33% at RT for 5 min. Fluorescence intensity was read at 475 nm/530 nm.

T1 sequence (P48775 whole entry): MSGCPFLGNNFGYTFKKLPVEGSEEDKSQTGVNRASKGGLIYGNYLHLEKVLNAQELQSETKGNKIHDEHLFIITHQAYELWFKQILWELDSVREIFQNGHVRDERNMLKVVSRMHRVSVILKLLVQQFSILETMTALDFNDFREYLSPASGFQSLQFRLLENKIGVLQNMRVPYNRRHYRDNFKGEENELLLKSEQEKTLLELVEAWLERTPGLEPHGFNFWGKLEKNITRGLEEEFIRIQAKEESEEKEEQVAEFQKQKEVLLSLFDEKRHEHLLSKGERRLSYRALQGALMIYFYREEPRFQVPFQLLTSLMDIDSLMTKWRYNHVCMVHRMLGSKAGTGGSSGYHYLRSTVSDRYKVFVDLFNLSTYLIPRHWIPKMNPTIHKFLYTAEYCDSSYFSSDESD
T2 sequence (P14902 whole entry): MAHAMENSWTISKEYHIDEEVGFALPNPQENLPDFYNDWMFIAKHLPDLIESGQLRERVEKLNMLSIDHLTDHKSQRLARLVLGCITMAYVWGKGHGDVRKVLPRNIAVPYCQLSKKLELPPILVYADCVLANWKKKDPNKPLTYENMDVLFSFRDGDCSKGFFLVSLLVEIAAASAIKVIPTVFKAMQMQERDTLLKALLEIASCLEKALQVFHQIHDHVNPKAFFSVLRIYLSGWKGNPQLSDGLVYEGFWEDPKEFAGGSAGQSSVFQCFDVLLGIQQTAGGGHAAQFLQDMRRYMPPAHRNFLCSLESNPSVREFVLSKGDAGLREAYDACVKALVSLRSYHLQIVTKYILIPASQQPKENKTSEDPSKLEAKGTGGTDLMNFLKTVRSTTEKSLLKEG
human IDO protein, sequence (P14902 whole entry): as above
human TDO protein, sequence (P48775 whole entry): as the sequence (P48775 whole entry) above

Compound	TDO cellular assay (A172) pIC50 [1]	IDO cellular assay (SKOV3) pIC50 [3]	further results
CC(NC(=O)c1cc2cc(Cl)ccc2[nH]1)c1ccc(C(=O)N(C)C)cc1 (centres unmarked) [Compound 83]	− (− = pIC50 <4.50)	+++ (+++ = pIC50 ≥5.50)	pIC50 in the hIDO assay [2]: 5.24
Cn1cc(C2(NC(=O)c3cc4cc(Cl)ccc4[nH]3)CCOCC2)cn1 [Compound 266]	− (− = pIC50 <4.50)	+++ (+++ = pIC50 ≥5.50)	
CC(Cc1cnn(C)c1)NC(=O)c1cc2cc(Cl)ccc2[nH]1 (centres unmarked) [Compound 267]	++ (++ = pIC50 5.00-<5.50)	+++ (+++ = pIC50 ≥5.50)	
CCOc1ccc2[nH]c(C(=O)N[C@H](C)c3ccccc3)cc2c1 [Compound 270]	− (− = pIC50 <4.50)	+++ (+++ = pIC50 ≥5.50)	
CCOc1ccc2[nH]c(C(=O)NC3(c4ccccc4)CC3)cc2c1 [Compound 271]	++ (++ = pIC50 5.00-<5.50)	+++ (+++ = pIC50 ≥5.50)	
CCOc1ccc2[nH]c(C(=O)NC(C)c3cnn(C)c3)cc2c1 (centres unmarked) [Compound 272]	− (− = pIC50 <4.50)	+++ (+++ = pIC50 ≥5.50)	
O=C(NC1(c2cocn2)CC1)c1cc2cc(Cl)ccc2[nH]1 [Compound 274]	− (− = pIC50 <4.50)	+++ (+++ = pIC50 ≥5.50)	
O=C(Nc1cccnc1)c1cc2ccccc2[nH]1 [REF, reference compound]			IC50 ([1]; read-out: TDO cellular assay (A172) pIC50 (converted)): > 31.6 µM; IC50 ([2]; read-out: pIC50 in the hIDO assay (converted)): > 102 µM; IC50 ([3]; read-out: IDO cellular assay (SKOV3) pIC50 (converted)): > 31.6 µM; IC50 [4]: > 102 µM

Second part, led by results:

TDO cellular assay (A172) pIC50 [1]	IDO cellular assay (SKOV3) pIC50 [3]	Compound	further results
− (− = pIC50 <4.50)	+++ (+++ = pIC50 ≥5.50)	CC(C)Oc1ccc2[nH]c(C(=O)NC3(c4cnn(C)c4)CC3)cc2c1 [Compound 265]	
− (− = pIC50 <4.50)	+++ (+++ = pIC50 ≥5.50)	Cn1cc(C2(NC(=O)c3cc4cc(Br)ccc4[nH]3)CCC2)cn1 [Compound 268]	
− (− = pIC50 <4.50)	+++ (+++ = pIC50 ≥5.50)	Cn1cc(C2(NC(=O)c3cc4cc(OC(F)(F)F)ccc4[nH]3)CCC2)cn1 [Compound 269]	
− (− = pIC50 <4.50)	+++ (+++ = pIC50 ≥5.50)	CCOc1ccc2[nH]c(C(=O)NC3(c4cnn(C)c4)CC3)cc2c1 [Compound 273]	
− (− = pIC50 <4.50)	+++ (+++ = pIC50 ≥5.50)	Cn1cc(C2(NC(=O)c3cc4cc(OC(F)(F)F)ccc4[nH]3)CC2)cn1 [Compound 275]	
